Data set [1] can be described thus: Clearance in rat at 10 mg/kg. Type of data set: ADME, organism-based. As to conditions: in vivo.
The target of data set [2] is cGMP-inhibited 3',5'-cyclic phosphodiesterase 3B (Homo sapiens, UniProt Q13370). Nature of the data set: Inhibition of human PDE3B.
A further data set relates to Mus musculus. Nature of the data set: Antidiabetic activity in ob/ob mouse assessed as reduction in blood glucose level at 5 to 20 mg/kg, po administered 3 hrs prior to glucose challenge measured up to 2 hrs by OGTT. Type of data set: functional, organism-based.
The target in data set [3] is High affinity 3',5'-cyclic-AMP phosphodiesterase 7A (Homo sapiens, UniProt Q13946). Put plainly: Inhibition of human PDE7A.
Data set [4] is described as follows: Stability in mouse liver microsomes. Type of data set: ADME, Microsome.
Data set [5] can be described thus: Stability in cynomolgus monkey liver microsomes. Type of data set: ADME, Macaca fascicularis, Microsome.
The species entered for data set [6] is Homo sapiens. Nature of the data set: Selectivity ratio of IC50 for human PDE7A to IC50 for human recombinant full length PDE10A expressed in sf9 cells.
Data set [7] concerns the target cAMP and cAMP-inhibited cGMP 3',5'-cyclic phosphodiesterase 10A (Homo sapiens, UniProt Q9Y233). Nature of the data set: Inhibition of human recombinant full length PDE10A expressed in sf9 cells by scintillation proximity assay.
Data set [8] addresses Dual specificity calcium/calmodulin-dependent 3',5'-cyclic nucleotide phosphodiesterase 1B (Homo sapiens, UniProt Q01064). Put plainly: Inhibition of human PDE1B.
Data set [9] is described as follows: Cardiotoxicity in anesthetized guinea pig. Type of data set: toxicity, Cavia porcellus.
Data set [10] addresses cGMP-specific 3',5'-cyclic phosphodiesterase (Homo sapiens, UniProt O76074). Put plainly: Inhibition of human PDE5A.
Another data set has as its target Cytochrome P450 2C19 (Homo sapiens, UniProt P33261). Put plainly: Inhibition of recombinant CYP2C19 (unknown origin). Type of data set: ADME.
The species named for data set [11] is Homo sapiens. Put plainly: Selectivity ratio of IC50 for human PDE4D to IC50 for human recombinant full length PDE10A expressed in sf9 cells.
A short description of data set [12]: Oral bioavailability in rat at 10 mg/kg. Type of data set: ADME, organism-based. Conditions: in vivo.
For data set [13], the target named is Voltage-gated inwardly rectifying potassium channel KCNH2 (Homo sapiens, UniProt Q12809). Nature of the data set: Inhibition of human ERG.
Data set [14] has as its target 3',5'-cyclic-AMP phosphodiesterase 4D (Homo sapiens, UniProt Q08499). Put plainly: Inhibition of human PDE4D.
In a further data set the target is Cytochrome P450 3A4 (Homo sapiens, UniProt P08684). Put plainly: Inhibition of recombinant CYP3A4 (unknown origin). Type of data set: ADME.
Data set [15] concerns the target cGMP-dependent 3',5'-cyclic phosphodiesterase (Homo sapiens, UniProt O00408). Nature of the data set: Inhibition of human PDE2A.
Data set [16] deals with Rattus norvegicus. Nature of the data set: Antidiabetic activity in fasted Sprague-Dawley rat assessed as reduction in blood glucose level at 3 to 30 mg/kg, po administered 3 hrs prior to glucose challenge measured up to 2 hrs by OGTT. Type of data set: functional, organism-based.
For data set [17], the species on record is Homo sapiens. Put plainly: Selectivity ratio of IC50 for human PDE5A to IC50 for human recombinant full length PDE10A expressed in sf9 cells.
The species entered for data set [18] is Homo sapiens. Nature of the data set: Selectivity ratio of IC50 for human PDE3B to IC50 for human recombinant full length PDE10A expressed in sf9 cells.
Data set [19] in a line: Stability in rat liver microsomes. Type of data set: ADME, Microsome.
Data set [20] is filed under the species Rattus norvegicus. Nature of the data set: Induction of insulin secretion in rat pancreatic islets at 0.1 to 3 uM in presence of 3 mM glucose. Type of data set: functional.
For data set [21], the system named is Pancreatic islet. Put plainly: Induction of insulin secretion in human pancreatic islets at 1 uM in presence of glucose. Type of data set: functional, cell-based.
Data set [22] is described as follows: Volume of distribution in steady state in rat at 10 mg/kg. Type of data set: ADME, organism-based. As to conditions: in vivo, read-out: Vdss.
Data set [23] can be described thus: Stability in human liver microsomes. Type of data set: ADME, Microsome.
The target in data set [24] is 3',5'-cyclic phosphodiesterase. Nature of the data set: Inhibition of human PDE. Type of data set: protein assay.
The species named for data set [25] is Rattus norvegicus. Nature of the data set: Induction of insulin secretion in rat pancreatic islets at 0.1 to 3 uM in presence of 12 mM glucose. Type of data set: functional.
For data set [26], the species on record is Homo sapiens. Put plainly: Selectivity ratio of IC50 for human PDE2A to IC50 for human recombinant full length PDE10A expressed in sf9 cells.
Data set [27] in a line: Stability in dog liver microsomes. Type of data set: ADME, Canis lupus familiaris, Microsome.
Data set [28] is filed under the species Homo sapiens. Put plainly: Selectivity ratio of IC50 for human PDE9A to IC50 for human recombinant full length PDE10A expressed in sf9 cells.
For the next data set, the target named is Cytochrome P450 2C9 (Homo sapiens, UniProt P11712). Nature of the data set: Inhibition of recombinant CYP2C9 (unknown origin). Type of data set: ADME.
For data set [29], the species on record is Homo sapiens. Put plainly: Selectivity ratio of IC50 for human PDE1B to IC50 for human recombinant full length PDE10A expressed in sf9 cells.
The target of the next data set is T1, Cytochrome P450 1A2 (Homo sapiens, UniProt P05177).
T1 sequence (P05177 whole entry): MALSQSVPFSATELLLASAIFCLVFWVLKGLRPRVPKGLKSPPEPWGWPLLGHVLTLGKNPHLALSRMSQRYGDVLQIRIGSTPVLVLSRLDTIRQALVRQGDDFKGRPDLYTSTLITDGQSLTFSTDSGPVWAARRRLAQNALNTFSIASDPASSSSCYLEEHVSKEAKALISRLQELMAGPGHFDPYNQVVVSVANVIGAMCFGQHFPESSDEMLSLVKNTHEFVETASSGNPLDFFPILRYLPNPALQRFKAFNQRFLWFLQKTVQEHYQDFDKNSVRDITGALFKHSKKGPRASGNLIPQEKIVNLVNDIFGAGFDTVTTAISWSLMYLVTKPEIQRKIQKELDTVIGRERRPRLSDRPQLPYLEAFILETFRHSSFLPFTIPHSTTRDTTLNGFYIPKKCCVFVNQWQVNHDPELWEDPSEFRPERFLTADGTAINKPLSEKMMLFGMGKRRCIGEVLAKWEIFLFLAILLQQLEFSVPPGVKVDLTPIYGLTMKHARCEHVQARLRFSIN
Put plainly: Inhibition of recombinant CYP1A2 (unknown origin). Type of data set: ADME.

The nature of data set [30]: Half life in rat at 10 mg/kg, iv. Type of data set: ADME, organism-based. Conditions: in vivo.
The target in data set [31] is High affinity cGMP-specific 3',5'-cyclic phosphodiesterase 9A (Homo sapiens, UniProt O76083). Put plainly: Inhibition of human PDE9A.
Another data set deals with Cytochrome P450 2D6 (Homo sapiens, UniProt P10635). Put plainly: Inhibition of recombinant CYP2D6 (unknown origin). Type of data set: ADME.
Data set [32] is described as follows: Cmax in rat at 10 mg/kg. Set-up: dose 10 mg/kg. Type of data set: ADME, organism-based. Conditions: in vivo.
Data set [33] has as its system Pancreatic islet. Nature of the data set: Induction of insulin secretion in human pancreatic islets at 15 mM in presence of glucose. Type of data set: functional, cell-based.
The nature of data set [34]: Ratio of drug level in brain to plasma (unknown origin) after 2 hrs. Type of data set: ADME. Conditions: brain and plasma; read-out: BPR.
Data set [35] has as its system Pancreatic islet. Nature of the data set: Induction of insulin secretion in human pancreatic islets at 30 mM in presence of glucose. Type of data set: functional, cell-based.
In data set [36] the test system is Pancreatic islet. Put plainly: Induction of insulin secretion in human pancreatic islets at 2 to 12 mM. Type of data set: functional, cell-based.

Activity calls are given as the source filed them. The calls are words filed in the database; no cut-off is given here.

Chain of cAMP and cAMP-inhibited cGMP 3',5'-cyclic phosphodiesterase 10A (Q9Y233 whole entry): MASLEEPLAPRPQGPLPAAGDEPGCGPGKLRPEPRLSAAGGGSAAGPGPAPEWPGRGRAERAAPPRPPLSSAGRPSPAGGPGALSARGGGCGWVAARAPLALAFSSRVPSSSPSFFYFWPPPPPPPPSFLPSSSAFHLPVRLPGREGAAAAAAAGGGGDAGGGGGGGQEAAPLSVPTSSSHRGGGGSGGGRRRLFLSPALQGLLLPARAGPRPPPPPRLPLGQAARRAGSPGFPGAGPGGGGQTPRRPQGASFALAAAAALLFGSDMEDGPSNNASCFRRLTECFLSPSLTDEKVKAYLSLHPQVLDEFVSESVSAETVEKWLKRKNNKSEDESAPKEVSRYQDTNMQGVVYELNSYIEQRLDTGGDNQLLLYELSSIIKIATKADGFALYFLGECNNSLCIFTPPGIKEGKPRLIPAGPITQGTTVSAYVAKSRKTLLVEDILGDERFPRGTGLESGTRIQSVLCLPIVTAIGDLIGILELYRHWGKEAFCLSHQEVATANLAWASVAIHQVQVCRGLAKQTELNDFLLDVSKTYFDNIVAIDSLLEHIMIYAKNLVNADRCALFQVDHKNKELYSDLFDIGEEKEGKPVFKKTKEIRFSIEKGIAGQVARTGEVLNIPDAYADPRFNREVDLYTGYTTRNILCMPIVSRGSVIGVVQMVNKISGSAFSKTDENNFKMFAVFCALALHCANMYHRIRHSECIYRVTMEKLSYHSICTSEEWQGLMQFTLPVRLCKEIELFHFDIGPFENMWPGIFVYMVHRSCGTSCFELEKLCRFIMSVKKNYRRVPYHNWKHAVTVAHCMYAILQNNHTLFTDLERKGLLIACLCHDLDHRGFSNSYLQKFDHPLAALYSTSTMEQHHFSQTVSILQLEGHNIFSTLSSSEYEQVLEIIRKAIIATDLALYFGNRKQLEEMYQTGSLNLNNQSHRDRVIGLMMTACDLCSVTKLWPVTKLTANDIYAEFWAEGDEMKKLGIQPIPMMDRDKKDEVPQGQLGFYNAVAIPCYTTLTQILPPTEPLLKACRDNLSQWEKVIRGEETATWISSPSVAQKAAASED
Chain of High affinity 3',5'-cyclic-AMP phosphodiesterase 7A (Q13946 whole entry): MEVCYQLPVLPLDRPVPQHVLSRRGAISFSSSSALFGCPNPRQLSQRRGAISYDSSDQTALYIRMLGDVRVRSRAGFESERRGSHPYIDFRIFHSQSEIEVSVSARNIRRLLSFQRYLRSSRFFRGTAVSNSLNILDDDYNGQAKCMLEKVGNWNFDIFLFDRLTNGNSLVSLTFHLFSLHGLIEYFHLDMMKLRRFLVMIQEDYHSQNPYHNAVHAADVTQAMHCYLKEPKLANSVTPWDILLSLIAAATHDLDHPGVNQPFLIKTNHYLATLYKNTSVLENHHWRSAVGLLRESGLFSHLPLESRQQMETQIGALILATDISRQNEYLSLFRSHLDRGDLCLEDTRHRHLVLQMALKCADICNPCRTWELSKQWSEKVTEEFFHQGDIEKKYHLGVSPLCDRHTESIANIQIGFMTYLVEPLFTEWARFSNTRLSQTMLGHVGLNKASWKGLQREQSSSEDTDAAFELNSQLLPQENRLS
Chain of High affinity cGMP-specific 3',5'-cyclic phosphodiesterase 9A (O76083 whole entry): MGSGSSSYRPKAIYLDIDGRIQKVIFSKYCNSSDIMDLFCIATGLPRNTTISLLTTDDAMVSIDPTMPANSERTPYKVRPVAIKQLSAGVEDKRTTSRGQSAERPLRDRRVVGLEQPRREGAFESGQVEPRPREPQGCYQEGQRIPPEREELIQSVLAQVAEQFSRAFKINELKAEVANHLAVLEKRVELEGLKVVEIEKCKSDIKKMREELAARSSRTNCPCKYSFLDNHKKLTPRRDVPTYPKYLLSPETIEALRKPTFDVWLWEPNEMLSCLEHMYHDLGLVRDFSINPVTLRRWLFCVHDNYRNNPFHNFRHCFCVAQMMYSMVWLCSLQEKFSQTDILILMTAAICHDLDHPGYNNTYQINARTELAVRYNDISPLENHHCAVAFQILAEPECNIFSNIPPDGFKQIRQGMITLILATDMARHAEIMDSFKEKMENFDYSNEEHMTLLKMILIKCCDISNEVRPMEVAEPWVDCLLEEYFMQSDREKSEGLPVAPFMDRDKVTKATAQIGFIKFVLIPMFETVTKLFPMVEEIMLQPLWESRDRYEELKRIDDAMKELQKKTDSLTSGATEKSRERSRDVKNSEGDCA
Chain of Voltage-gated inwardly rectifying potassium channel KCNH2 (Q12809 whole entry): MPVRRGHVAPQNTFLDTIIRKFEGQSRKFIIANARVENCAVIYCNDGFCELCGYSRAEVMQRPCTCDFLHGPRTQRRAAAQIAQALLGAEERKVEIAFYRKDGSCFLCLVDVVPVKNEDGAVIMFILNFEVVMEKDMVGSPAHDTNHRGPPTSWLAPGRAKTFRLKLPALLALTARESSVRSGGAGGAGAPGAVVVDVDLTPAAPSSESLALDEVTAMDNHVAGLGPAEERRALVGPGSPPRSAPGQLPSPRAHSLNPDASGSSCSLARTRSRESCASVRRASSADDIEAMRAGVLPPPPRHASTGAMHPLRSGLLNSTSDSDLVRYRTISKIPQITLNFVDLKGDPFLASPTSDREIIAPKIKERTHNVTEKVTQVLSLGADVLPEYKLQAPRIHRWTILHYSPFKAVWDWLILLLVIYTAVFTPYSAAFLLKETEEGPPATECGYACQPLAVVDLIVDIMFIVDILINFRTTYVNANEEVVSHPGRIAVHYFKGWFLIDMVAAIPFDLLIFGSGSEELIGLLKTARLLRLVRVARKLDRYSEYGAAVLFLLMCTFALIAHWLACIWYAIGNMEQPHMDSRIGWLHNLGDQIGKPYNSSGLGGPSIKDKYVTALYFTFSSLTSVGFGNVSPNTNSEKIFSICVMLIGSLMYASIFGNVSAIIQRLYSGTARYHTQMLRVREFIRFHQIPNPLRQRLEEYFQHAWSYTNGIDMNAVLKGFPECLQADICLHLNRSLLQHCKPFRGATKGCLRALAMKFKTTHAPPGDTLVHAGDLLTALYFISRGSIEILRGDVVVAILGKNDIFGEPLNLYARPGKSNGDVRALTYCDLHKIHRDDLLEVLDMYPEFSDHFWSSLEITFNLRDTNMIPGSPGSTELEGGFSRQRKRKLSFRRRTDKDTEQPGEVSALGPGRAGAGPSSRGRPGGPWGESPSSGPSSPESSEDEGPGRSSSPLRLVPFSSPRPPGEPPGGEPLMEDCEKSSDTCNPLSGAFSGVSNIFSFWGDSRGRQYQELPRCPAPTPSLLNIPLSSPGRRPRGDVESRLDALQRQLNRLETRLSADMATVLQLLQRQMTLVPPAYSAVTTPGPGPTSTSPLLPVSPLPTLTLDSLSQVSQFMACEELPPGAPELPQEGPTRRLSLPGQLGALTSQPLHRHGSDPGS
Chain of 3',5'-cyclic-AMP phosphodiesterase 4D (Q08499 whole entry): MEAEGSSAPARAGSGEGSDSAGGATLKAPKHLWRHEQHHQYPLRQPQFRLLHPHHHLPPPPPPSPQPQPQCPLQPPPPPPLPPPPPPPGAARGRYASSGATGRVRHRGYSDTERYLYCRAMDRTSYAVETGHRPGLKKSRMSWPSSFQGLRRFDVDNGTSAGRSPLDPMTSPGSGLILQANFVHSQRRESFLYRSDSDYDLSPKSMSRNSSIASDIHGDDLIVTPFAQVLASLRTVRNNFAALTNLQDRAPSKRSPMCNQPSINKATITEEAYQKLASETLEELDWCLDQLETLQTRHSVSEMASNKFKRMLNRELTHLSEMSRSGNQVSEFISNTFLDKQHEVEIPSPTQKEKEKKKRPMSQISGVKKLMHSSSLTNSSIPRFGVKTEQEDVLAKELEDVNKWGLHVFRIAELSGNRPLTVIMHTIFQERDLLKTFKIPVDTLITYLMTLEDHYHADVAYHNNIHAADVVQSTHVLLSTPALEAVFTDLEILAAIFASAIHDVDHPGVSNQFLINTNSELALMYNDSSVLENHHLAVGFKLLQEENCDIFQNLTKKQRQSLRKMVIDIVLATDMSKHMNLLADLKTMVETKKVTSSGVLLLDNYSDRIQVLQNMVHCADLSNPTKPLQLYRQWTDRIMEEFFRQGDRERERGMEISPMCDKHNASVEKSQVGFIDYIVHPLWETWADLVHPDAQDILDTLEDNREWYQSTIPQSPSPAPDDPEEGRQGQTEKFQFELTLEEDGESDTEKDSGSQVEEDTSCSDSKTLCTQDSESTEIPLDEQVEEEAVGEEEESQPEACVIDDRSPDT
Chain of Cytochrome P450 2D6 (P10635 whole entry): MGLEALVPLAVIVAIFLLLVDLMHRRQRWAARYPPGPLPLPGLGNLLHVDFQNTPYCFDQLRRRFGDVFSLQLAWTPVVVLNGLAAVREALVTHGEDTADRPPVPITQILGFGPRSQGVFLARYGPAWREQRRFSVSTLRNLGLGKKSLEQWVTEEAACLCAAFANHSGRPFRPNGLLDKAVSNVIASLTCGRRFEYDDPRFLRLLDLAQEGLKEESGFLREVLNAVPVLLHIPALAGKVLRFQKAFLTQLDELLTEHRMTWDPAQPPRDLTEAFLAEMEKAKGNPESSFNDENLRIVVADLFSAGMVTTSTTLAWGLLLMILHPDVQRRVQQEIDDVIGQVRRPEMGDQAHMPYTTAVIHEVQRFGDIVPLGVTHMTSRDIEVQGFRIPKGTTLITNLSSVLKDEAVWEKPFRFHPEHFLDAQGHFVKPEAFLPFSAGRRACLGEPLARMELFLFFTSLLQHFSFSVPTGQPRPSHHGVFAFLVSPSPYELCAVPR

With `O=C(O)c1ccc(-c2c(/C=C/c3ccc4ccccc4n3)nc3c(N4CCOCC4)ccnn23)cc1`, the clearance in [1] amounted to 3.3 mL/min/kg. Besides, the half-maximal inhibitory concentration (IC50) is 6.6 µM in data set [2]; 4.2 µM in data set [3]; 1.5 to 2 nM in [7]; 6.6 µM in data set [8]; 5.4 µM in data set [10]; above 10 µM at Cytochrome P450 2C19. Also, the IC50 in data set [14] was 4 µM; on Cytochrome P450 3A4, above 10 µM; in data set [15], 5.9 µM; in data set [24], 3 µM; on Cytochrome P450 2C9, above 10 µM; on Cytochrome P450 1A2, above 10 µM. The 50% inhibitory concentration (IC50) (in data set [31]; at Cytochrome P450 2D6) was above 10 µM in each case. Further, the result in the data set with Mus musculus, in the data set on Rattus norvegicus [16], in the data set filed under Rattus norvegicus [20] and in the data set filed under Rattus norvegicus [25] was inactive. The Stability entry in data set [4], in data set [5], in [19], in data set [23] and in data set [27] was “Stable” each time. Besides, the Ratio IC50 in the data set filed under Homo sapiens [6], in the data set filed under Homo sapiens [11], in the data set listed under Homo sapiens [17], in the data set filed under Homo sapiens [18], in the data set listed under Homo sapiens [26] and in the data set listed under Homo sapiens [28] was 200 throughout. Further, the Ratio IC50 in the data set filed under Homo sapiens [29] was found to be 200. Also, in data set [9], the Activity entry is recorded as “Non-Toxic”. Moreover, in [12], the bioavailability was 44%. Besides, the “inhibition (INH)” value in data set [13] is “Not Active”. Further, the outcome with Pancreatic islet [21] was Active. The Vd in data set [22] came to 0.47 L/kg. In [30], this compound returned a half-life of 360 to 366 min. In data set [32], this compound showed a Cmax of 2990 ng/mL.
Turning to `N=C(N)NCCC[C@H](N)C(=O)O`, the outcome with Pancreatic islet [33] was Active.
Consider `Oc1ncn(-c2ccc(-c3c(/C=C/c4ccc5ccccc5n4)nc4c(N5CCOCC5)ccnn34)cc2)n1`, for which, in data set [7], the half-inhibitory concentration (IC50) is 7.4 nM.
For `CS(=O)(=O)NC(=O)c1ccc(-c2c(C#Cc3ccc4ccccc4n3)nc3c(N4CCOCC4)ccnn23)cn1`, the Kp at 2 h in [34] amounted to 0.01. The IC50 in data set [7] came to 2.1 nM.
`c1ccc2nc(SCc3nc4c(N5CCOCC5)ccnn4c3-c3ccc(N4CCNCC4)nc3)ccc2c1`: the Kp at 2 h in data set [34] was 0.82.
Turning to `COc1ccc(Cl)cc1C(=O)NCCc1ccc(S(=O)(=O)NC(=O)NC2CCCCC2)cc1`, the outcome in the data set on Pancreatic islet [21] was Active.
With `Oc1nc(O)c(-c2ccc(-c3c(/C=C/c4ccc5ccccc5n4)nc4c(N5CCOCC5)ccnn34)cc2)o1`, the Kp at 2 h in data set [34] is 0.01. Further, the IC50 in [7] was 8.5 nM.
In the case of `O=c1[nH]c(-c2ccc(-c3c(/C=C/c4ccc5ccccc5n4)nc4c(N5CCOCC5)ccnn34)cc2)no1`, the IC50 in data set [7] came to 3.3 nM.
For the compound `O=C(O)C1CCN(c2ccc(-c3c([C@H]4C[C@H](c5ccc6ccccc6n5)C4)nc4c(N5CCOCC5)ccnn34)cc2)CC1`, the Kp at 2 h in data set [34] came to 0.02. Besides, the IC50 in data set [7] was determined as 3.2 nM.
For `NS(=O)(=O)N1CCN(c2c(CSc3ccc4ccccc4n3)nc3c(N4CCOCC4)ccnn23)CC1`, in that order: 0.31 and 13.8 nM.
For the compound `c1ccc2nc(Cc3nc4c(N5CCOCC5)ccnn4c3-c3ccc(N4CCNCC4)nc3)ccc2c1`, the Kp at 2 h in [34] was 0.45. The concentration for half-maximal inhibition (IC50) in [7] amounted to 123 nM.
In the case of `[Cl-].[K+]`, the outcome with Pancreatic islet [35] was Active.
As for `O=C(O)CCc1ccc(-c2c([C@H]3C[C@H](c4ccc5ccccc5n4)C3)nc3c(N4CCOCC4)ccnn23)cc1`, the IC50 in [7] came out at 2.4 nM.
Same read-out and setting: then `O=C(O)c1ccc(-c2c(CCc3ccc4ccccc4n3)nc3c(N4CCOCC4)ccnn23)cc1`, with 1.2 nM.
On the same count and under the same terms, the value for `O=C(O)c1ccc(-c2c([C@H]3C[C@H](c4ccc5ccccc5n4)C3)nc3c(N4CCOCC4)ccnn23)cc1` was 0.6 nM; that for `CC(=O)NS(=O)(=O)c1ccc(-c2c(/C=C/c3ccc4ccccc4n3)nc3c(N4CCOCC4)ccnn23)cc1` was 2.2 nM.
`OC[C@H]1OC(O)[C@H](O)[C@@H](O)[C@@H]1O` (stereo partly specified): the outcome with Pancreatic islet [36] was Active.
In the case of `O=C(O)C1CCN(c2ccc(-c3c(/C=C/c4ccc5ccccc5n4)nc4c(N5CCOCC5)ccnn34)cc2)CC1`, the Kp at 2 h in [34] is 0.02. Also, in [7], the IC50 was 4.4 nM.

The values above are taken from ChEMBL document CHEMBL4477250, “Discovery of novel potent imidazo[1,2-b]pyridazine PDE10a inhibitors” (Bioorg Med Chem Lett, 2016).
